Test results reported in patent publication US20110268800A1, “Unsaturated fatty acids as thrombin inhibitors” (LTS Lohmann Therapie-Systeme AG, priority 2005, published 2011).

Target: thrombin (Homo sapiens, UniProt P00734)
Experiment: thrombin inhibition test, amidolytic assay with Chromozym TH
Assay type: biochemical
Conditions: for Inhibition (%): thrombin, substrate Chromozym TH, pH 8.0, room temperature, 15 min preincubation; for thrombin-inhibiting action of fatty acids identified in the plant drugs (in words): free fatty acids separated from hexane/isopropanol (3:2) lipid extracts by preparative thin layer chromatography
Procedure: As the testing system, an amidolytic assay with Chromozym TH (tosylglycyl-prolyl-arginine-4-nitroanilide acetate) was used as a substrate for thrombin. The principle of the test system is based on the cleavage of the substrate by thrombin, and on the release of p-nitroaniline, which absorbs at a wavelength of 405 nm. The absorption increase over time was detected photometrically. The inhibition of thrombin was calculated by a comparison between the linear initial phase of the absorption increase of the test samples containing the extract, and the blank value.
For the thrombin inhibition test, the method according to Sturzebecher was employed, with the exception of the enzyme concentration (Sturzebecher, J., Vieweg, H. (1995). Structure-Activity Relationships of Inhibitors derived from 3-Amidinophenyl-alanine. J Enzyme Inhib, 9, 87-99). • Buffer: 608 mg Tris buffer and 900 mg NaCl were dissolved in 100 ml bidistilled water. The pH value of the buffer was subsequently set to 8.0, using HCl (2 mMol) (concentrations in the sample: 0.05 mol/1 Tris HCL, 0.154 mol/1 NaCl). The substance to be examined was dissolved in ethanol (5% total volume). This was followed by filling up with buffer. • Enzyme: 1 mg/ml (=50 NIH—U/ml) thrombin was dissolved in 0.9% NaCl solution (stock solution). To prepare the sample, this solution was diluted 1:100 with a solution of 0.9% NaCL and 1% bovine serum albumin. • Substrate: 6.6 mg Chromozym TH was dissolved in 10 ml bidistilled water (concentration=1 mmol/l). • Measurement sample: 200 μl buffer/substance • 25 μl substrate • 50 μl enzyme • Conditions: Room temperature • Implementation: Buffer and enzyme are added together by pipetting and incubated for 15 min. The reaction was started by adding the substrate. • For measuring the absorption, a plate reader, iEMS Reader MF from Labsystems, was used with 96-well microtitre plates. The measurements took place at a wavelength of 405 nm, every 10 seconds, 60 measurements. Prior to start of the measurements, the microtitre plate was shaken at 600 rpm. • Evaluation: The measurements were recorded by means of iEMS Accent Software, and evaluated with Microsoft Excel 97 Software. • To calculate inhibition, the slope in the linear initial phase of the absorption increase in the samples containing the substance to be examined was compared with the slope of the absorption increase in the blank sample. For evaluation, the first 5 measured values were left out of consideration since the bubbles forming on account of the mixing can lead to problems at the beginning of the reaction. The inhibition is calculated as follows:
Inhibition=100−(slopeInhibitor/slopeBlank value*100)

| Compound | Inhibition (%) (test concentration not printed) | also measured |
| --- | --- | --- |
| CCCCCC/C=C\CCCCCCCCCC(=O)O [Vaccenic acid, 11-cis-Octadecenoic acid] | 79.9% | Inhibition (%) (test concentration not given, listed as cis-vaccenic acid): 80% |
| C=CCCCCCCCC(=O)O [9-Decenoic acid] | −3.7% | – |
| CCCCCC[C@@H](O)C/C=C/CCCCCCCC(=O)O (stereo in doubt) [Ricinoleic acid, 12-Hydroxy-9-cis-octadecenoic acid] | 43.9% | – |
| CCCCCCCC/C=C/CCCCCCCC(=O)O [Elaidinic acid, 9-trans-Octadecenoic acid] | 7.4% | – |
| CC/C=C\C/C=C\C/C=C\C/C=C\C/C=C\CCCC(=O)O [Eicosapentaenoic acid, 5-cis, 8-cis, 11-cis, 14-cis, 17-cis-Eicosapentaenoic acid] | −1.0% | – |
| CCCCC/C=C\C/C=C\C/C=C\C/C=C\CCCC(=O)O [Arachidonic acid, 5-cis, 8-cis, 11-cis, 14-cis-Eicosatetraenoic acid] | 75.2% | – |
| CC/C=C\C/C=C\C/C=C\C/C=C\C/C=C\C/C=C\CCC(=O)O [Docosahexaenoic acid, 4-cis, 7-cis, 10-cis, 13-cis, 16-cis, 19-cis-Docosahexaenoic acid] | −2.5% | – |

Second part, led by results:

| Inhibition (%) (test concentration not printed) | Compound | also measured |
| --- | --- | --- |
| 71.7% | CCCCC/C=C\C/C=C\CCCCCCCC(=O)O [Linoleic acid, 9-cis,12-cis-Octadecadienoic acid] | thrombin-inhibiting action of fatty acids identified in the plant drugs (in words): responsible for the thrombin-inhibiting action |
| 65.8% | CCCCCCCC/C=C\CCCCCCCC(=O)O [Oleic acid, 9-cis-Octadecenoic acid] | thrombin-inhibiting action of fatty acids identified in the plant drugs (in words): identified as the thrombin-inhibiting substances; Inhibition (%) (test concentration not printed, listed as oleic acid): 66% |
| 60.7% | CCCCCCCC/C=C\CCCCCCCCCC(=O)O [Eicosenoic acid, 11-cis-Eicosenoic acid] | thrombin-inhibiting action of fatty acids identified in the plant drugs (in words): identified as the thrombin-inhibiting substances |
| 0.7% | CCCCCCCC(=O)O [Octanoic acid] | – |
| 2.4% | CC/C=C\C/C=C\C/C=C\C/C=C\CCCCC(=O)O [Stearidonic acid, 6-cis, 9-cis, 12-cis, 15-cis-Octadecatetraenoic acid] | – |
| 1.4% | CCCCCCCCCCCCCCCC(=O)O [Palmitic acid, Hexadecanoic acid] | thrombin-inhibiting action of fatty acids identified in the plant drugs (in words): without effect |
| 7.8% | CCCCCCCC/C=C\CCCCCCCCCCCC(=O)O [Eruca acid, 13-cis-Docosaenoic acid] | – |
| 76.0% | CC/C=C\C/C=C\C/C=C\CCCCCCCCCC(=O)O [Eicosatrienoic acid, 11-cis, 14-cis, 17-cis-Eicosatrienoic acid] | – |
| 75.5% | CC/C=C\C/C=C\C/C=C\CCCCCCCC(=O)O [Linolenic acid, 9-cis, 12-cis, 15-cis-Octadecatrienoic acid] | – |
